Target: human mGlu4 receptor (Homo sapiens (Human), UniProt Q14833)
Test: Intracellular Ca2+ mobilization assay (FLIPR), mGlu4 NAM
Type: cell-based
Settings: HEK-293 cells stably transfected with human mGlu4; inhibition of L-AP4 (EC80) response; IC50
Procedure: 2.1) Intracellular Ca^2+ Mobilization Assay (FLIPR)
A monoclonal HEK-293 cell line stably transfected with a cDNA encoding for the human mGlu4 receptor was generated. Cells were cultured according to standard protocols (Freshney, 2000) in Dulbecco's Modified Eagle Medium with high glucose supplemented with 1 mM glutamine, 10% (vol/vol) heat-inactivated bovine calf serum, penicillin/streptomycin, 50 μg/ml hygromycin and 15 μg/ml blasticidin (all cell culture reagents and antibiotics from Invitrogen, Basel, Switzerland).
About 24 hrs before an experiment, 5×10^4 cells/well were seeded in poly-D-lysine coated, black/clear-bottomed 96-well plates. The cells were loaded with 2.5 μM Fluo-4AM in loading buffer (1×HBSS, 20 mM HEPES) for 1 hr at 37° C. and washed five times with loading buffer. The cells were transferred into a Functional Drug Screening System 7000 (Hamamatsu, Paris, France), and 11 half logarithmic serial dilutions of test compound at 37° C. were added and the cells were incubated for 10-30 min. with on-line recording of fluorescence. Following this pre-incubation step, the agonist (2S)-2-amino-4-phosphonobutanoic acid (L-AP4) was added to the cells at a concentration corresponding to EC80 with on-line recording of fluorescence; in order to account for day-to-day variations in the responsiveness of cells, the EC80 of L-AP4 was determined immediately ahead of each experiment by recording of a full dose-response curve of L-AP4.
Responses were measured as peak increase in fluorescence minus basal (i.e. fluorescence without addition of L-AP4), normalized to the maximal stimulatory effect obtained with saturating concentrations of L-AP4. Graphs were plotted with the % maximal stimulatory using XLfit, a curve fitting program that iteratively plots the data using Levenburg Marquardt algorithm. The single site competition analysis equation used was y=A+((B-A)/(1+((x/C)D))), where y is the % maximal stimulatory effect, A is the minimum y, B is the maximum y, C is the IC50, x is the log 10 of the concentration of the competing compound and D is the slope of the curve (the Hill Coefficient). From these curves the IC50 (drug concentration at which 50% of the receptor activation achieved from the addition of L-AP4 in the experiment was inhibited), the Hill coefficient as well as the maximal response in % of the maximal stimulatory effect obtained with saturating concentrations of L-AP4 were calculated (see FIG. 1).

Sequence of human mGlu4 receptor (Q14833 33-912): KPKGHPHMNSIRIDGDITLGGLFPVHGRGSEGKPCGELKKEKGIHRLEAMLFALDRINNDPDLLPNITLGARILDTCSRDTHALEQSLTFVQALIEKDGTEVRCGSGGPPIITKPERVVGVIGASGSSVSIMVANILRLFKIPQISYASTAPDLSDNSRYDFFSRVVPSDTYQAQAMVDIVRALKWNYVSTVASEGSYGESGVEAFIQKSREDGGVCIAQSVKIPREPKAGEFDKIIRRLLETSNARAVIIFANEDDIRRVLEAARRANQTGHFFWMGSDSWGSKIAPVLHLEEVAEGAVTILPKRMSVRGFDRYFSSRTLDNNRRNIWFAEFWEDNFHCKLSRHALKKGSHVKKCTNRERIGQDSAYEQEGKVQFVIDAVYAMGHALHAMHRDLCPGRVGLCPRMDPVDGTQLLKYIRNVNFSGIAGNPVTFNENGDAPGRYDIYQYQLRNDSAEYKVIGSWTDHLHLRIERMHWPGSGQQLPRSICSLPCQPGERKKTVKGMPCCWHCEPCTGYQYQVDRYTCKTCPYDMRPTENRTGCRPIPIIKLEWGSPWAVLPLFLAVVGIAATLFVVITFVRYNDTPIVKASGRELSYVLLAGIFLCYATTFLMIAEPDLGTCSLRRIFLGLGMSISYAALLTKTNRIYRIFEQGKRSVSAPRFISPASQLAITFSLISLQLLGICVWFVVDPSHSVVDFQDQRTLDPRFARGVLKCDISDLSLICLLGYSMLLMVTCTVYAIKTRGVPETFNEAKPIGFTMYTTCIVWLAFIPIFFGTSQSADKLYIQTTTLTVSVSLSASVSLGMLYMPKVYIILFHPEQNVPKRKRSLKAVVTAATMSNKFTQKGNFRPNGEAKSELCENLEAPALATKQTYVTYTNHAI

| Compound | EC50 |
| --- | --- |
| O=S(=O)(Nc1c(F)cc(C#Cc2ccccc2)cc1F)c1ccccc1Cl [Example 1, 2-chloro-N-[2,6-difluoro-4-(2-phenylethynyl)phenyl]benzenesulfonamide] | 4.28 µM |
| O=S(=O)(Nc1c(F)cc(C#Cc2ccccc2)cc1F)c1cccc(Cl)c1Cl [Example 2, 2,3-dichloro-N-[2,6-difluoro-4-(2-phenylethynyl)phenyl]benzenesulfonamide] | 1.68 µM |
| O=S(=O)(Nc1c(F)cc(C#Cc2ccccc2)cc1F)c1ccccc1C(F)(F)F [Example 3, N-[2,6-difluoro-4-(2-phenylethynyl)phenyl]-2-(trifluoromethyl)benzenesulfonamide] | 2.81 µM |
| O=S(=O)(Nc1c(F)cc(C#Cc2ccccc2)cc1F)c1cc(Cl)ccc1Cl [Example 4, 2,5-dichloro-N-[2,6-difluoro-4-(2-phenylethynyl)phenyl]benzenesulfonamide] | 3.43 µM |
| Cc1ccccc1S(=O)(=O)Nc1c(F)cc(C#Cc2ccccc2)cc1F [Example 5, N-[2,6-difluoro-4-(2-phenylethynyl)phenyl]-2-methyl-benzenesulfonamide] | 3.71 µM |
| O=S(=O)(Nc1c(F)cc(C#Cc2ccccc2)cc1F)c1ccccc1F [Example 6, N-[2,6-difluoro-4-(2-phenylethynyl)phenyl]-2-fluoro-benzenesulfonamide] | 4.64 µM |
| O=S(=O)(Nc1c(F)cc(C#Cc2ccccc2)cc1F)c1cccnc1 [Example 7, N-[2,6-difluoro-4-(2-phenylethynyl)phenyl]pyridine-3-sulfonamide] | 4.67 µM |
| O=S(=O)(Nc1c(F)cc(C#Cc2ccccc2)cc1F)c1cccc(Cl)c1 [Example 8, 3-chloro-N-[2,6-difluoro-4-(2-phenylethynyl)phenyl]benzenesulfonamide] | 5.92 µM |
| O=S(=O)(Nc1c(F)cc(C#Cc2cccnc2)cc1F)c1ccccc1Cl [Example 9, 2-chloro-N-[2,6-difluoro-4-[2-(3-pyridyl)ethynyl]phenyl]benzenesulfonamide] | 14.2 µM |
| O=S(=O)(Nc1c(F)cc(C#Cc2ccccc2)cc1F)c1ccccn1 [Example 10, N-[2,6-difluoro-4-(2-phenylethynyl)phenyl]pyridine-2-sulfonamide] | 14.3 µM |
| O=S(=O)(Nc1c(F)cc(C#Cc2ccccc2)cc1F)c1ccc(Cl)cc1Cl [Example 11, 2,4-dichloro-N-[2,6-difluoro-4-(2-phenylethynyl)phenyl]benzenesulfonamide] | 15.7 µM |
| O=S(=O)(Nc1c(F)cc(C#Cc2cncc(F)c2)cc1F)c1ccccc1Cl [Example 12, 2-chloro-N-[2,6-difluoro-4-[2-(5-fluoro-3-pyridyl)ethynyl]phenyl]benzenesulfonamide] | 2.96 µM |
| O=S(=O)(Nc1c(F)cc(C#Cc2cncc(F)c2)cc1F)c1cccc(Cl)c1Cl [Example 13, 2,3-dichloro-N-[2,6-difluoro-4-[2-(5-fluoro-3-pyridyl)ethynyl]phenyl]benzenesulfonamide] | 0.556 µM |
| O=S(=O)(Nc1c(F)cc(C#Cc2cncc(F)c2)cc1F)c1cccc(Cl)c1 [Example 14, 3-chloro-N-[2,6-difluoro-4-[2-(5-fluoro-3-pyridyl)ethynyl]phenyl]benzenesulfonamide] | 1.05 µM |
| COc1c(Cl)cccc1S(=O)(=O)Nc1c(F)cc(C#Cc2cncc(F)c2)cc1F [Example 15, 3-chloro-N-[2,6-difluoro-4-[2-(5-fluoro-3-pyridyl)ethynyl]phenyl]-2-methoxy-benzenesulfonamide] | 0.778 µM |
| Cc1cccc(S(=O)(=O)Nc2c(F)cc(C#Cc3ccccc3)cc2F)c1Cl [Example 16, 2-chloro-N-[2,6-difluoro-4-(2-phenylethynyl)phenyl]-3-methyl-benzenesulfonamide] | 1.56 µM |
| O=S(=O)(Nc1c(F)cc(C#Cc2ccccc2)cc1F)c1cccc(F)c1Cl [Example 17, 2-chloro-N-[2,6-difluoro-4-(2-phenylethynyl)phenyl]-3-fluoro-benzenesulfonamide] | 0.734 µM |
| COc1ccc(Cl)c(S(=O)(=O)Nc2c(F)cc(C#Cc3ccccc3)cc2F)c1 [Example 18, 2-chloro-N-[2,6-difluoro-4-(2-phenylethynyl)phenyl]-5-methoxy-benzenesulfonamide] | 3.94 µM |
| Cc1ccc(Cl)c(S(=O)(=O)Nc2c(F)cc(C#Cc3ccccc3)cc2F)c1 [Example 19, 2-chloro-N-[2,6-difluoro-4-(2-phenylethynyl)phenyl]-5-methyl-benzenesulfonamide] | 1.26 µM |

| Compound | EC50 |
| --- | --- |
| Cc1c(Cl)cccc1S(=O)(=O)Nc1c(F)cc(C#Cc2ccccc2)cc1F [Example 20, 3-chloro-N-[2,6-difluoro-4-(2-phenylethynyl)phenyl]-2-methyl-benzenesulfonamide] | 1.07 µM |
| O=S(=O)(Nc1c(F)cc(C#Cc2ccccc2)cc1F)c1cccc(Cl)c1C(F)(F)F [Example 21, 3-chloro-N-[2,6-difluoro-4-(2-phenylethynyl)phenyl]-2-(trifluoromethyl)benzenesulfonamide] | 15.3 µM |
| O=S(=O)(Nc1c(F)cc(C#Cc2ccccc2)cc1F)c1cccnc1Cl [Example 22, 2-chloro-N-[2,6-difluoro-4-(2-phenylethynyl)phenyl]pyridine-3-sulfonamide] | 4.33 µM |
| O=S(=O)(Nc1c(F)cc(C#Cc2ccccc2)cc1F)c1cncc(Cl)c1 [Example 23, 5-chloro-N-[2,6-difluoro-4-(2-phenylethynyl)phenyl]pyridine-3-sulfonamide] | 3.11 µM |
| O=S(=O)(Nc1c(F)cc(C#Cc2ccccc2)cc1F)c1cncc(F)c1 [Example 24, N-[2,6-difluoro-4-(2-phenylethynyl)phenyl]-5-fluoropyridine-3-sulfonamide] | 2.05 µM |
| Cn1nccc1S(=O)(=O)Nc1c(F)cc(C#Cc2ccccc2)cc1F [Example 25, N-[2,6-difluoro-4-(2-phenylethynyl)phenyl]-1-methyl-1H-pyrazole-5-sulfonamide] | 1.06 µM |
| Cn1ccc(S(=O)(=O)Nc2c(F)cc(C#Cc3ccccc3)cc2F)n1 [Example 26, N-[2,6-difluoro-4-(2-phenylethynyl)phenyl]-1-methyl-pyrazole-3-sulfonamide] | 16 µM |
| COc1cccc(S(=O)(=O)Nc2c(F)cc(C#Cc3ccccc3)cc2F)c1Cl [Example 27, 2-chloro-N-[2,6-difluoro-4-(2-phenylethynyl)phenyl]-3-methoxy-benzenesulfonamide] | 8.43 µM |
| Cc1c(C(F)(F)F)cccc1S(=O)(=O)Nc1c(F)cc(C#Cc2ccccc2)cc1F [Example 28, N-[2,6-difluoro-4-(2-phenylethynyl)phenyl]-2-methyl-3-(trifluoromethyl)benzenesulfonamide] | 1.95 µM |
| Cc1ncccc1S(=O)(=O)Nc1c(F)cc(C#Cc2ccccc2)cc1F [Example 29, N-[2,6-difluoro-4-(2-phenylethynyl)phenyl]-2-methyl-pyridine-3-sulfonamide] | 2.89 µM |
| Cc1ccc(C)c(S(=O)(=O)Nc2c(F)cc(C#Cc3ccccc3)cc2F)c1 [Example 30, N-[2,6-difluoro-4-(2-phenylethynyl)phenyl]-2,5-dimethyl-benzenesulfonamide] | 1.34 µM |
| Cc1ccncc1S(=O)(=O)Nc1c(F)cc(C#Cc2ccccc2)cc1F [Example 31, N-[2,6-difluoro-4-(2-phenylethynyl)phenyl]-4-methyl-pyridine-3-sulfonamide] | 1.4 µM |
| COCc1c(Cl)cccc1S(=O)(=O)Nc1c(F)cc(C#Cc2ccccc2)cc1F [Example 32, 3-chloro-N-[2,6-difluoro-4-(2-phenylethynyl)phenyl]-2-(methoxymethyl)benzenesulfonamide] | 3.88 µM |
| O=S(=O)(Nc1c(F)cc(C#Cc2ccccc2)cc1F)c1cccc(C(F)(F)F)c1Cl [Example 33, 2-chloro-N-[2,6-difluoro-4-(2-phenylethynyl)phenyl]-3-(trifluoromethyl)benzenesulfonamide] | 2.08 µM |
| O=S(=O)(Nc1c(F)cc(C#Cc2ccccc2)cc1F)c1cccc2ncoc12 [Example 34, N-[2,6-difluoro-4-(2-phenylethynyl)phenyl]-1,3-benzoxazole-7-sulfonamide] | 6.56 µM |
| O=S(=O)(Nc1c(F)cc(C#Cc2ccccc2)cc1F)c1cccc(Cl)c1F [Example 35, 3-chloro-N-[2,6-difluoro-4-(2-phenylethynyl)phenyl]-2-fluoro-benzenesulfonamide] | 1.61 µM |
| Cc1cccc(S(=O)(=O)Nc2c(F)cc(C#Cc3ccccc3)cc2F)c1 [Example 36, N-[2,6-difluoro-4-(2-phenylethynyl)phenyl]-3-methyl-benzenesulfonamide] | 5.02 µM |
| Cc1c(F)cccc1S(=O)(=O)Nc1c(F)cc(C#Cc2ccccc2)cc1F [Example 37, N-[2,6-difluoro-4-(2-phenylethynyl)phenyl]-3-fluoro-2-methyl-benzenesulfonamide] | 1.05 µM |

Source: patent US12065399B2, “Arylsulfonamide derivatives” (Hoffmann-La Roche Inc., priority 2019, dated 2024)
